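Following 48 hours of exposure in 96-well plates, responses at five concentrations were used to interpolate endpoints linearly. Here, GI50 denotes the concentration required for 50% inhibition of growth. TGI: concentration producing complete growth inhibition.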
Tests used:
Experiment in all cases: DTP human tumour cell line panel, 48 h
MDA-MB-435 = system: MDA-MB-435
SF-268 CNS = system: SF-268 CNS
786-0 renal = system: 786-0 renal
RPMI-8226 leukemia = system: RPMI-8226 leukemia
A549 NSCLC = system: A549 NSCLC
OVCAR-5 ovarian = system: OVCAR-5 ovarian
UACC-257 melanoma = system: UACC-257 melanoma
HS 578T breast = system: HS 578T breast
SF-539 CNS = system: SF-539 CNS
BT-549 breast = system: BT-549 breast
CAKI-1 renal = system: CAKI-1 renal
HOP-92 NSCLC = system: HOP-92 NSCLC
PC-3 prostate = system: PC-3 prostate
COLO 205 colon = system: COLO 205 colon
HCT-15 colon = system: HCT-15 colon
OVCAR-3 ovarian = system: OVCAR-3 ovarian
K-562 leukemia = system: K-562 leukemia
HOP-62 NSCLC = system: HOP-62 NSCLC
U251 CNS = system: U251 CNS
KM12 colon = system: KM12 colon
RXF 393 renal = system: RXF 393 renal
OVCAR-8 ovarian = system: OVCAR-8 ovarian
CCRF-CEM leukemia = system: CCRF-CEM leukemia
SK-MEL-2 melanoma = system: SK-MEL-2 melanoma
DU-145 prostate = system: DU-145 prostate
SN12C renal = system: SN12C renal
A498 renal = system: A498 renal
SK-MEL-28 melanoma = system: SK-MEL-28 melanoma
SW-620 colon = system: SW-620 colon
HT29 colon = system: HT29 colon
EKVX NSCLC = system: EKVX NSCLC
SK-OV-3 ovarian = system: SK-OV-3 ovarian
NCI/ADR-RES ovarian = system: NCI/ADR-RES ovarian
SNB-75 CNS = system: SNB-75 CNS
MCF7 breast = system: MCF7 breast
MDA-MB-231 breast = system: MDA-MB-231 breast
T-47D breast = system: T-47D breast
M14 melanoma = system: M14 melanoma
ACHN renal = system: ACHN renal
SR leukemia = system: SR leukemia
SNB-19 CNS = system: SNB-19 CNS
NCI-H23 lung = system: NCI-H23 lung
TK-10 renal = system: TK-10 renal
UO-31 renal = system: UO-31 renal
NCI-H460 lung = system: NCI-H460 lung
MALME-3M melanoma = system: MALME-3M melanoma
NCI-H522 lung = system: NCI-H522 lung
SK-MEL-5 melanoma = system: SK-MEL-5 melanoma
MOLT-4 leukemia = system: MOLT-4 leukemia
HCC-2998 colon = system: HCC-2998 colon
UACC-62 melanoma = system: UACC-62 melanoma
HCT-116 colon = system: HCT-116 colon
LOX IMVI melanoma = system: LOX IMVI melanoma
OVCAR-4 ovarian = system: OVCAR-4 ovarian
NCI-H226 lung = system: NCI-H226 lung
IGROV1 ovarian = system: IGROV1 ovarian
SF-295 CNS = system: SF-295 CNS
HL-60(TB) leukemia = system: HL-60(TB) leukemia

## COC(=O)C1=C(OC(=O)c2ccc(Cl)cc2)C(C(=O)OC)[C@@]2(O)[C@@H](C(=O)OC)C(c3ccccc3Cl)C[C@@H]1[C@@H]2C(=O)OC (stereo partly drawn)
MDA-MB-435
  GI50: 2.06 µM
  TGI: 4.93 µM
SF-268 CNS
  GI50: 5.41 µM
  TGI: > 100 µM
786-0 renal
  GI50: 7.27 µM
  TGI: > 100 µM
RPMI-8226 leukemia
  GI50: 8.79 µM
  TGI: > 100 µM
A549 NSCLC
  GI50: 3.16 µM
  TGI: > 100 µM
OVCAR-5 ovarian
  GI50: 55.3 µM
  TGI: > 100 µM
UACC-257 melanoma
  GI50: 3.52 µM
  TGI: 22.4 µM
HS 578T breast
  GI50: 3.79 µM
  TGI: > 100 µM
SF-539 CNS
  GI50: 12.4 µM
  TGI: 61 µM
BT-549 breast
  GI50: 5.47 µM
  TGI: > 100 µM
CAKI-1 renal
  GI50: 2.09 µM
  TGI: 7.35 µM
HOP-92 NSCLC
  GI50: 47.2 µM
  TGI: > 100 µM
PC-3 prostate
  GI50: 37.2 µM
  TGI: > 100 µM
COLO 205 colon
  GI50: 23.3 µM
  TGI: > 100 µM
HCT-15 colon
  GI50: 3.04 µM
  TGI: > 100 µM
OVCAR-3 ovarian
  GI50: 1.76 µM
  TGI: 5.95 µM
K-562 leukemia
  GI50: 6 µM
  TGI: > 100 µM
HOP-62 NSCLC
  GI50: 15.9 µM
  TGI: > 100 µM
U251 CNS
  GI50: 3.4 µM
  TGI: 27 µM
KM12 colon
  GI50: 2.81 µM
  TGI: 50.8 µM
RXF 393 renal
  GI50: 2.23 µM
  TGI: 6.96 µM
OVCAR-8 ovarian
  GI50: 2.61 µM
  TGI: 12.8 µM
CCRF-CEM leukemia
  GI50: 4.3 µM
  TGI: > 100 µM
SK-MEL-2 melanoma
  GI50: 2.51 µM
  TGI: 5.94 µM
DU-145 prostate
  GI50: 7.46 µM
  TGI: > 100 µM
SN12C renal
  GI50: 4.22 µM
  TGI: 31 µM
A498 renal
  GI50: 2.81 µM
  TGI: 13.2 µM
SK-MEL-28 melanoma
  GI50: 30.1 µM
  TGI: > 100 µM
SW-620 colon
  GI50: 4.54 µM
  TGI: > 100 µM
HT29 colon
  GI50: 6.57 µM
  TGI: > 100 µM
EKVX NSCLC
  GI50: 6.17 µM
  TGI: > 100 µM
SK-OV-3 ovarian
  GI50: 19.8 µM
  TGI: 91.9 µM
NCI/ADR-RES ovarian
  GI50: 3.41 µM
  TGI: > 100 µM
SNB-75 CNS
  GI50: 5.05 µM
  TGI: 30.3 µM
MCF7 breast
  GI50: 5.47 µM
  TGI: > 100 µM
MDA-MB-231 breast
  GI50: 4.57 µM
  TGI: 17.5 µM
T-47D breast
  GI50: 9.39 µM
  TGI: > 100 µM
M14 melanoma
  GI50: 4.07 µM
  TGI: 90.1 µM
ACHN renal
  GI50: 3.49 µM
  TGI: > 100 µM
SR leukemia
  GI50: 8.11 µM
  TGI: > 100 µM
SNB-19 CNS
  GI50: 24.1 µM
  TGI: > 100 µM
NCI-H23 lung
  GI50: 3.23 µM
  TGI: > 100 µM
TK-10 renal
  GI50: 8 µM
  TGI: > 100 µM
UO-31 renal
  GI50: 4.03 µM
  TGI: 24 µM
NCI-H460 lung
  GI50: 4.18 µM
  TGI: > 100 µM
MALME-3M melanoma
  GI50: 4.85 µM
  TGI: 31.7 µM
NCI-H522 lung
  GI50: 2.77 µM
  TGI: 7.92 µM
SK-MEL-5 melanoma
  GI50: 5.19 µM
  TGI: 26.5 µM
MOLT-4 leukemia
  GI50: 3.54 µM
  TGI: 34.6 µM
HCC-2998 colon
  GI50: 14.3 µM
  TGI: > 100 µM
UACC-62 melanoma
  GI50: 2.21 µM
  TGI: 4.81 µM
HCT-116 colon
  GI50: 3.17 µM
  TGI: > 100 µM

## CCNCCNc1cc(C2CCCCC2)c(C#N)c2nc3ccccc3n12
MDA-MB-435
  GI50: 1.73 µM
  TGI: 3.4 µM
SF-268 CNS
  GI50: 1.9 µM
  TGI: 4.38 µM
786-0 renal
  GI50: 1.57 µM
  TGI: 3.04 µM
RPMI-8226 leukemia
  GI50: 2.11 µM
  TGI: 5.02 µM
A549 NSCLC
  GI50: 2.19 µM
  TGI: 4.76 µM
OVCAR-5 ovarian
  GI50: 2.57 µM
  TGI: 6.56 µM
UACC-257 melanoma
  GI50: 2.34 µM
  TGI: 4.38 µM
HS 578T breast
  GI50: 2.4 µM
  TGI: 5.42 µM
BT-549 breast
  GI50: 1.77 µM
  TGI: 3.64 µM
CAKI-1 renal
  GI50: 1.82 µM
  TGI: 3.91 µM
HOP-92 NSCLC
  GI50: 2.28 µM
  TGI: 4.08 µM
PC-3 prostate
  GI50: 4.81 µM
  TGI: 16 µM
COLO 205 colon
  GI50: 1.58 µM
  TGI: 3.41 µM
HCT-15 colon
  GI50: 1.69 µM
  TGI: 3.46 µM
OVCAR-3 ovarian
  GI50: 1.7 µM
  TGI: 3.29 µM
K-562 leukemia
  GI50: 1.35 µM
  TGI: 4.39 µM
HOP-62 NSCLC
  GI50: 2.28 µM
  TGI: 6.93 µM
U251 CNS
  GI50: 1.48 µM
  TGI: 3.42 µM
KM12 colon
  GI50: 2.76 µM
  TGI: 8.48 µM
RXF 393 renal
  GI50: 1.7 µM
  TGI: 3.19 µM
OVCAR-8 ovarian
  GI50: 2.93 µM
  TGI: 7.99 µM
CCRF-CEM leukemia
  GI50: 1.3 µM
  TGI: 3.28 µM
SK-MEL-2 melanoma
  GI50: 2.29 µM
  TGI: 4.71 µM
DU-145 prostate
  GI50: 2.37 µM
  TGI: 5.79 µM
SN12C renal
  GI50: 1.93 µM
  TGI: 4.02 µM
A498 renal
  GI50: 1.56 µM
  TGI: 2.95 µM
SK-MEL-28 melanoma
  GI50: 1.7 µM
  TGI: 3.36 µM
SW-620 colon
  GI50: 1.44 µM
  TGI: 3.15 µM
HT29 colon
  GI50: 1.73 µM
  TGI: 3.82 µM
EKVX NSCLC
  GI50: 2.18 µM
  TGI: 6.84 µM
SK-OV-3 ovarian
  GI50: 1.81 µM
  TGI: 3.48 µM
NCI/ADR-RES ovarian
  GI50: 2.35 µM
  TGI: 6.82 µM
SNB-75 CNS
  GI50: 1.52 µM
  TGI: 3.4 µM
MCF7 breast
  GI50: 1.53 µM
  TGI: 3.27 µM
LOX IMVI melanoma
  GI50: 0.568 µM
  TGI: 2.08 µM
MDA-MB-231 breast
  GI50: 1.95 µM
  TGI: 3.62 µM
T-47D breast
  GI50: 1.58 µM
  TGI: 3.42 µM
OVCAR-4 ovarian
  GI50: 2.1 µM
  TGI: 6.42 µM
M14 melanoma
  GI50: 1.93 µM
  TGI: 3.67 µM
ACHN renal
  GI50: 1.79 µM
  TGI: 3.86 µM
SR leukemia
  GI50: 0.288 µM
  TGI: 1.04 µM
SNB-19 CNS
  GI50: 4.9 µM
  TGI: 18.4 µM
NCI-H23 lung
  GI50: 2.06 µM
  TGI: 5.54 µM
TK-10 renal
  GI50: 2.41 µM
  TGI: 6.12 µM
NCI-H226 lung
  GI50: 1.71 µM
  TGI: 3.32 µM
UO-31 renal
  GI50: 1.66 µM
  TGI: 3.36 µM
NCI-H460 lung
  GI50: 1.78 µM
  TGI: 3.28 µM
MALME-3M melanoma
  GI50: 1.8 µM
  TGI: 3.48 µM
IGROV1 ovarian
  GI50: 2.38 µM
  TGI: 7.04 µM
NCI-H522 lung
  GI50: 2.05 µM
  TGI: 4.4 µM
SK-MEL-5 melanoma
  GI50: 1.71 µM
  TGI: 3.1 µM
MOLT-4 leukemia
  GI50: 2.04 µM
  TGI: 4.97 µM
SF-295 CNS
  GI50: 1.8 µM
  TGI: 3.36 µM
HCC-2998 colon
  GI50: 2.53 µM
  TGI: 6.79 µM
HL-60(TB) leukemia
  GI50: 1.46 µM
  TGI: 3.49 µM
UACC-62 melanoma
  GI50: 1.9 µM
  TGI: 3.75 µM
HCT-116 colon
  GI50: 1.37 µM
  TGI: 2.72 µM

From PubChem BioAssay (NCI)
